The source of these data is patent US4540691A, “Dopamine agonists and use thereof” (Nelson Research & Development Co., priority 1984, dated 1985).

Molecules are shown by their SMILES. “Also recorded” adds a separate entry of the source.

One series deals with DA receptor. In words: Radioligand binding assay: displacement of ^3 H-5,6-dihydroxy-N,N-dipropyl-2-aminotetralin (DA receptor agonist) from homogenates of rat corpus striatum. The note with it: for IC50: mean of 3 independent experiments each in triplicate, 10^-11 to 10^-5 M, read-out: IC50 (concentration of drug required to inhibit the specific binding by 50%). On the procedure:
The ability of the above compounds to displace the specific binding of ^3 H-5,6-dihydroxy-N,N-dipropyl-2-aminotetralin, a potent DA receptor agonist (Feenstra et al., Life Sci., 32, 1313 (1983)) to homogenates of rat corpus striatum was studied.
The assay was performed essentially according to the method of Leysen and Gommeran J. Neurochem. 36, 201 (1981) for ^3 H-apomorphine binding.
The IC50 is the concentration of drug required to inhibit the specific binding by 50%. The results are presented as the mean values of 3 independent experiments each analyzed in triplicate over the concentration range 10^-11 to 10^-5 M.

In series [1] the test system is homovanillic acid, HVA (corpus striatum). In words: Effect on dopamine metabolism: lowering of striatal HVA levels. The class given is in vivo, Female Wistar rats. Particulars: for HVA % control / HVA content of corpus striatum: injected, 60 min, mean ± S.E.M. On the procedure: Dopamine agonists are known to produce a lowering of the striatal levels of one of the main metabolites of dopamine, homovanillic acid, HVA, (Feenstra et al., 1983 Arch. Pharmacol., 324, 108).
Female Wistar rats (160-180g) were injected with the drugs under test dissolved in saline and were then decapitated 60 min later. The HVA content of the corpus striatum was determined according to the method of Westerink and Mulder (J. Neurochem., 1981 36, 1449).

Another series concerns dopamine receptor. In words: Dopamine receptor agonist activity, overall conclusion from various tests. Particulars: pre- and post-synaptic dopaminergic tests. The method, then:
The dopaminergic activity of three analogues (A,B,C) was evaluated in comparison with the indolic structural analogue RU 29717 (Nedelec et al., 1983, J. Med. Chem., 26, 522) in three test systems. Compounds B and C are within the scope of the present invention.

For series [2], the system named is presynaptic dopamine receptors. In words: Presynaptic DA activity in the GBL model: counteracting GBL-induced rise in striatal DOPA levels. The note with it: for % Reversal vs. GBL group / DOPA (striatal level): 0.2 μmol/kg; for % Reversal vs. GBL group: GBL + NSD 1015 group = 0, NSD 1015 group = 100; for DOPA (striatal level): GBL model, NSD 1015 as decarboxylase inhibitor. Type of series: in vivo, rat. On the procedure:
The ability of a dopamine agonist to counteract the gamma-butyrolactone (GBL) induced rise in DOPA levels in the rat striatum is an indication of its activity at presynaptic dopamine receptors. (Walters and Roth, 1976 Arch. Pharmacol., 296, 5).
The experiments were performed in rats according to the method of Walters and Roth (ibid). The striatal levels of DOPA were determined using the method of Westerink and Mulder (1981 J. Neurochem. 36, 1449). NSD 1015 was used as decarboxylase inhibitor.

Series [3] relates to adrenergic and serotonergic. Particulars: literature background; cited from earlier work.
Another series concerns dopaminergic. The note with it: literature background; cited from earlier work.
The conditions of series [4]: literature background; cited from earlier work.

With `CN1CCc2cccc3c2[C@H]1Cc1ccc(O)c(O)c1-3` [Apomorphine, reference compound], the IC50 at DA receptor came to 3.2 nM.
For `CCCN1CCOC2c3ccccc3CCC21` (centres unmarked) [Compound A], in series [1] (0.4 μmol/kg), the HVA % control came to 91.8 ± 2.0 % control and the “HVA content of corpus striatum” value turned out to be 0.90 ± 0.02 µg/g. Further, in the series with DA receptor, the “potency in binding assay (conclusion in words)” value was “the least potent” and the IC50 was 110 nM. Moreover, in the series with dopamine receptor, the “dopamine agonist activity (general conclusion in words)” value (“dopamine agonist activity” for short) is given as “significantly less active”. In addition, in series [2], the “% Reversal vs. GBL group” value was 4.5% and the “DOPA (striatal level)” value came to 5.25 ± 0.09 µg/g.
`CCCN1CCOC2c3cccc(O)c3CCC21` (centres unmarked) [Compound B]: in series [1] (0.4 μmol/kg), the HVA % control was 98.0 ± 12.2 % control and the “HVA content of corpus striatum” value turned out to be 0.96 ± 0.12 µg/g. Also, in the series on DA receptor, the “potency in binding assay (conclusion in words)” value is recorded as “some activity” and the IC50 is 80 nM. Moreover, the “dopamine agonist activity” value with dopamine receptor was “useful levels of dopamine agonist activity”. In addition, in series [2], the “% Reversal vs. GBL group” value is 17.3% and the “DOPA (striatal level)” value was found to be 4.80 ± 0.37 µg/g.
Turning to `CCCN1CCOC2c3cc(O)ccc3CCC21` (centres unmarked) [Compound C], in series [1] (0.2 μmol/kg), the HVA % control turned out to be 63.3 ± 4.1 % control and the “HVA content of corpus striatum” value was found to be 0.62 ± 0.04 µg/g. In series [1] (0.4 μmol/kg), the HVA % control is reported as 48.0 ± 1.0 % control and the “HVA content of corpus striatum” value amounted to 0.47 ± 0.01 µg/g. For the same compound, the “activity on HVA levels (conclusion in words)” value in series [1] (conclusion) is reported as “comparable in activity to RU 29717”. The IC50 on DA receptor came out at 2.8 nM. In addition, the “dopamine agonist activity” value in the series with dopamine receptor is “useful levels of dopamine agonist activity; also recorded: as active as the known DA agonist RU 29717”. Further, in series [2], the “% Reversal vs. GBL group” value worked out at 94.6% and the “DOPA (striatal level)” value amounted to 2.08 ± 0.12 µg/g. Further, the “potency in GBL model (conclusion in words)” value in series [2] (conclusion) was “slightly more potent than RU 29717”.
Take `CCCN1CCO[C@@H]2c3cccc4[nH]cc(c34)C[C@H]21` [RU 29717, N-PROPYL-9-OXAERGOLINE, reference compound]: in series [1] (0.2 μmol/kg), the HVA % control came out at 51.0 ± 4.1 % control and the “HVA content of corpus striatum” value turned out to be 0.50 ± 0.04 µg/g. For the same compound, in series [1] (0.4 μmol/kg), the HVA % control is 46.9 ± 2.0 % control and the “HVA content of corpus striatum” value amounted to 0.46 ± 0.02 µg/g. Moreover, the IC50 on DA receptor is 3 nM. Moreover, the “adrenergic and serotonergic activity (in words)” value in series [3] is “has adrenergic and serotonergic activity”. In addition, the “dopaminergic agonist activity (in words)” value in the series on dopaminergic is listed as “extremely potent direct acting dopaminergic agonist, comparing favorably with pergolide”. For the same compound, in series [4], the “emetic activity (in words)” value was “Its activity as an emetic is a significant problem”. In addition, in series [2], the “% Reversal vs. GBL group” value is recorded as 88.4% and the “DOPA (striatal level)” value was determined as 2.30 ± 0.16 µg/g.
